Measurements: article PMC11845477, “Exploring the principles behind antibiotics with limited resistance” (Nature Communications, 2025)

Test system: A. baumannii ATCC 17978 (SEN) and A. baumannii ATCC BAA-1605 (MDR)
Assay: Adaptive laboratory evolution (ALE), relative MIC of evolved lines
Assay type: cell-based, Acinetobacter baumannii
Text: Using the same set of bacterial strains, we initiated adaptive laboratory evolution with the aim to maximize the level of antibiotic resistance in the populations achieved during a longer, but fixed time period.
An established protocol for adaptive laboratory evolution[46],[73] was followed to propagate populations with the highest resistance levels. Starting with an antibiotic concentration that caused approximately 50% growth inhibition, ten parallel populations for each antibiotic-ancestor strain combination were grown for 72 hours at 37 °C with continuous shaking (300 RPM). MHB broth medium was used unless stated otherwise. After each incubation, 20 µl of each culture was transferred to four new wells containing fresh medium with increasing antibiotic concentrations (0.5×, 1×, 1.5×, and 2.5× the previous concentration) in a chessboard layout to monitor potential cross-contamination. Growth was monitored by measuring OD600 using a Biotek Synergy 2 microplate reader, and only populations grown in the highest drug concentration with an OD600 > 0.2 were transferred further.
A robotic liquid handling system was used to automatically prepare a 11 to 16-step serial dilution in 384-well microtiter plates (Greiner). A final concentration of 5 × 10^5 bacterial cells per mL were inoculated into each well containing 60 µL MHB medium. Bacterial cultures were incubated at 37 °C with continuous shaking (Infors shaker, 900 rpm with 3 mm throw) for 18 hours (2 replicates from each). Cell growth was monitored by measuring the optical density (OD600 values, using Biotek Synergy microplate reader). MIC was defined as the antibiotic concentration of complete growth inhibition (i.e., OD600 < 0.05). Relative MIC was calculated as follows:1 relativeMIC=MICevolved/MICancestor […]
Supplementary Figure 4. Resistance levels following adaptive laboratory evolution across bacterial strains. The level of resistance was measured as the fold change in relative MIC between evolved and ancestral strains after ~60 days of adaptive laboratory evolution. Data are grouped by bacterial strain (A. baumannii (AB), E. coli (EC), K. pneumoniae (KP), and P. aeruginosa (PA)) and categorized as either multidrug-resistant (MDR) or sensitive (SEN). Each data point represents a laboratory evolved line, and boxplots show the median, first and third quartiles, with whiskers indicating the 5th and 95th percentiles.
Statistical analysis was performed using two-sided Dunn’s post-hoc test with Benjamini-Hochberg correction for multiple comparisons (****/ ***/ **/ * indicates p < 0.0001/ 0.001/ 0.01/ 0.05). For detailed information on antibiotic and bacterial species, see Supplementary Table 1. For mode of action groups, refer to Table 1. Source data are provided as a Source Data file.

[1] = AB-SEN (Acinetobacter baumannii ATCC 17978), evolved line 2 adapted to the named antibiotic
[2] = AB-SEN (Acinetobacter baumannii ATCC 17978), evolved line 4 adapted to the named antibiotic
[3] = Acinetobacter baumannii ATCC 17978 (AB-SEN), evolved line 2
[4] = Acinetobacter baumannii ATCC 17978 (AB-SEN), evolved line 3
[5] = Acinetobacter baumannii ATCC 17978 (AB-SEN), evolved line 4
[6] = Acinetobacter baumannii ATCC 17978 (AB-SEN), evolved line 5
[7] = Acinetobacter baumannii ATCC 17978 (AB-SEN), evolved line 6
[8] = Acinetobacter baumannii ATCC 17978 (AB-SEN), evolved line 7
[9] = Acinetobacter baumannii ATCC 17978 (AB-SEN), evolved line 8
[10] = Acinetobacter baumannii ATCC 17978 (AB-SEN), evolved line 9
[11] = Acinetobacter baumannii ATCC 17978 (AB-SEN), evolved line 10

CN(C)[C@@H]1C(O)=C(C(N)=O)C(=O)[C@@]2(O)C(O)=C3C(=O)c4c(O)c(NC(=O)CN5CCCC5)cc(F)c4C[C@H]3C[C@@H]12 [Eravacycline]
2.107: Relative MIC (log10) [1] | Relative MIC (log10) [2] | Relative MIC (log10) (AB-SEN (Acinetobacter baumannii ATCC 17978), evolved line 6 adapted to the named antibiotic) | Relative MIC (log10) (AB-SEN (Acinetobacter baumannii ATCC 17978), evolved line 9 adapted to the named antibiotic)
1.505: Relative MIC (log10) (AB-MDR (Acinetobacter baumannii ATCC BAA 1605), evolved line 2 adapted to the named antibiotic) | Relative MIC (log10) (AB-MDR (Acinetobacter baumannii ATCC BAA 1605), evolved line 3 adapted to the named antibiotic) | Relative MIC (log10) (AB-MDR (Acinetobacter baumannii ATCC BAA 1605), evolved line 4 adapted to the named antibiotic) | Relative MIC (log10) (AB-MDR (Acinetobacter baumannii ATCC BAA 1605), evolved line 6 adapted to the named antibiotic) | Relative MIC (log10) (AB-MDR (Acinetobacter baumannii ATCC BAA 1605), evolved line 10 adapted to the named antibiotic)
1.806: Relative MIC (log10) (AB-SEN (Acinetobacter baumannii ATCC 17978), evolved line 8 adapted to the named antibiotic)
64: Relative MIC (AB-SEN (ATCC 17978), evolved line 1, MIC of evolved line / MIC of ancestor) | Relative MIC (AB-SEN (ATCC 17978), evolved line 8, MIC of evolved line / MIC of ancestor) | Relative MIC (Acinetobacter baumannii ATCC 17978 (AB-SEN), evolved line 1) | Relative MIC [9]
16: Relative MIC (AB-MDR (ATCC BAA 1605), evolved line 1, MIC of evolved line / MIC of ancestor) | Relative MIC (AB-MDR (ATCC BAA 1605), evolved line 5, MIC of evolved line / MIC of ancestor) | Relative MIC (Acinetobacter baumannii ATCC BAA 1605 (AB-MDR), evolved line 5) | Relative MIC (Acinetobacter baumannii ATCC BAA 1605 (AB-MDR), evolved line 1)
32: Relative MIC (AB-MDR (ATCC BAA 1605), evolved line 2, MIC of evolved line / MIC of ancestor) | Relative MIC (AB-MDR (ATCC BAA 1605), evolved line 3, MIC of evolved line / MIC of ancestor) | Relative MIC (AB-MDR (ATCC BAA 1605), evolved line 4, MIC of evolved line / MIC of ancestor) | Relative MIC (AB-MDR (ATCC BAA 1605), evolved line 6, MIC of evolved line / MIC of ancestor) | Relative MIC (AB-MDR (ATCC BAA 1605), evolved line 7, MIC of evolved line / MIC of ancestor) | Relative MIC (AB-MDR (ATCC BAA 1605), evolved line 8, MIC of evolved line / MIC of ancestor) | Relative MIC (AB-MDR (ATCC BAA 1605), evolved line 9, MIC of evolved line / MIC of ancestor) | Relative MIC (AB-MDR (ATCC BAA 1605), evolved line 10, MIC of evolved line / MIC of ancestor) | Relative MIC (Acinetobacter baumannii ATCC BAA 1605 (AB-MDR), evolved line 2) | Relative MIC (Acinetobacter baumannii ATCC BAA 1605 (AB-MDR), evolved line 4) | Relative MIC (Acinetobacter baumannii ATCC BAA 1605 (AB-MDR), evolved line 6) | Relative MIC (Acinetobacter baumannii ATCC BAA 1605 (AB-MDR), evolved line 7) | Relative MIC (Acinetobacter baumannii ATCC BAA 1605 (AB-MDR), evolved line 8) | Relative MIC (Acinetobacter baumannii ATCC BAA 1605 (AB-MDR), evolved line 9) | Relative MIC (Acinetobacter baumannii ATCC BAA 1605 (AB-MDR), evolved line 10) | Relative MIC (Acinetobacter baumannii ATCC BAA 1605 (AB-MDR), evolved line 3)
128: Relative MIC (AB-SEN (ATCC 17978), evolved line 2, MIC of evolved line / MIC of ancestor) | Relative MIC (AB-SEN (ATCC 17978), evolved line 3, MIC of evolved line / MIC of ancestor) | Relative MIC (AB-SEN (ATCC 17978), evolved line 4, MIC of evolved line / MIC of ancestor) | Relative MIC (AB-SEN (ATCC 17978), evolved line 5, MIC of evolved line / MIC of ancestor) | Relative MIC (AB-SEN (ATCC 17978), evolved line 6, MIC of evolved line / MIC of ancestor) | Relative MIC (AB-SEN (ATCC 17978), evolved line 7, MIC of evolved line / MIC of ancestor) | Relative MIC (AB-SEN (ATCC 17978), evolved line 9, MIC of evolved line / MIC of ancestor) | Relative MIC (AB-SEN (ATCC 17978), evolved line 10, MIC of evolved line / MIC of ancestor) | Relative MIC [3] | Relative MIC [4] | Relative MIC [5] | Relative MIC [6] | Relative MIC [7] | Relative MIC [8] | Relative MIC [10] | Relative MIC [11]

CNC(C)C1CCC(N)C(OC2C(N)CC(N)C(OC3OCC(C)(O)C(NC)C3O)C2O)O1 (stereo not shown) [Gentamicin]
256: Relative MIC (AB-SEN, Acinetobacter baumannii ATCC 17978, evolved line 3 versus ancestor) | Relative MIC (AB-SEN, Acinetobacter baumannii ATCC 17978, evolved line 6 versus ancestor) | Relative MIC [4] | Relative MIC [7]
512: Relative MIC (AB-SEN, Acinetobacter baumannii ATCC 17978, evolved line 2 versus ancestor) | Relative MIC (AB-SEN, Acinetobacter baumannii ATCC 17978, evolved line 4 versus ancestor) | Relative MIC (AB-SEN, Acinetobacter baumannii ATCC 17978, evolved line 5 versus ancestor) | Relative MIC (AB-SEN, Acinetobacter baumannii ATCC 17978, evolved line 7 versus ancestor) | Relative MIC (AB-SEN, Acinetobacter baumannii ATCC 17978, evolved line 10 versus ancestor) | Relative MIC [3] | Relative MIC [5] | Relative MIC [6] | Relative MIC [8] | Relative MIC [11]
2.709: Relative MIC (log10) [1] | Relative MIC (log10) [2] | Relative MIC (log10) (AB-SEN (Acinetobacter baumannii ATCC 17978), evolved line 5 adapted to the named antibiotic) | Relative MIC (log10) (AB-SEN (Acinetobacter baumannii ATCC 17978), evolved line 7 adapted to the named antibiotic) | Relative MIC (log10) (AB-SEN (Acinetobacter baumannii ATCC 17978), evolved line 10 adapted to the named antibiotic)
128: Relative MIC (AB-SEN, Acinetobacter baumannii ATCC 17978, evolved line 8 versus ancestor) | Relative MIC (AB-SEN, Acinetobacter baumannii ATCC 17978, evolved line 9 versus ancestor) | Relative MIC [9] | Relative MIC [10]
